In ChEMBL document CHEMBL2057062, “Synthesis and biological evaluation of 4-phenylquinazoline-2-carboxamides designed as a novel class of potent ligands of the translocator protein” (J Med Chem, 2012):
The source made the active and inactive calls. No cut-off for these calls is given here.

Experiments:
[1] = molecular target: Translocator protein (Rattus norvegicus, UniProt P16257); test: Displacement of [3H]PK11195 from TSPO in rat kidney mitochondrial membranes by competitive binding assay; type: cell membranes, Membrane
[2] = species on record: Rattus norvegicus; test: Displacement of [3H]flumazenil from central benzodiazepine receptor in rat cerebral cortex membranes at 10 uM after 90 mins by competitive binding assay; type: cell membranes; conditions: Membrane
[3] = tested on: C6; test: Increase in pregnenolone production in rat C6 glioma cells at 40 uM after 2 hrs by ELISA; type: functional, cell-based
[4] = molecular target: Translocator protein (Rattus norvegicus) (UniProt P16257); test: Displacement of [3H]PK11195 from TSPO in rat kidney mitochondrial membranes at 1 uM by competitive binding assay; type: cell membranes; conditions: Membrane
[5] = tested on: U-87MG ATCC; test: Antiproliferative activity against human U87MG cells assessed as cell viability at 100 uM after 24 hrs by MTS assay; type: functional, cell-based

Compound | Ki [1] [nM] | inhibition [2] [%] | Activity [3] | inhibition [4] [%] | Activity [5]
CCCN(CCC)C(=O)c1nc(-c2ccccc2)c2ccccc2n1 | 36.8 | 0 |  |  | 
CC[C@@H](C)N(C)C(=O)c1nc(-c2ccc(Cl)cc2)c2ccccc2n1 | 1.57 | 0 |  |  | 
CCC(C)N(C)C(=O)c1nc(-c2ccc(Cl)cc2)c2ccccc2n1 (stereo unspecified) | 2.67 | 0 | Active |  | 
CC(C)N(C)C(=O)c1nc(-c2ccc(Cl)cc2)c2ccccc2n1 | 50.4 | 0 |  |  | 
O=C(c1nc(-c2ccccc2Cl)c2ccccc2n1)N1CCCC1 |  | 0 |  | 70 | 
CCC(C)N(C)C(=O)c1nc(-c2ccccc2Cl)c2ccccc2n1 (stereo unspecified) | 3.06 | 0 | Active |  | Active
CCC(C)N(C)C(=O)c1nc(-c2ccccc2)c2ccccc2n1 (stereo unspecified) | 3 | 0 |  |  | 
O=C(c1nc(-c2ccccc2Cl)c2ccccc2n1)N1CCCCCC1 | 8.77 | 0 |  |  | 
CCC(C)N(C)C(=O)c1nc(-c2ccccc2)c2cc(Cl)ccc2n1 (stereo unspecified) |  | 0 |  | 22 | 
CC(C)N(C)C(=O)c1nc(-c2ccc(Cl)cc2)c2cc(Cl)ccc2n1 |  | 0 |  | 39 | 
CCCN(CCC)C(=O)Cc1c(-c2ccc(Cl)cc2)nc2ccc(Cl)cn12 |  | 0 |  |  | 
CC(C)CN(C)C(=O)c1nc(-c2ccccc2)c2ccccc2n1 | 66.5 | 0 |  |  | 
CC(C)N(C)C(=O)c1nc(-c2ccccc2)c2ccccc2n1 | 70.3 | 0 |  |  | 
CCCCN(CCCC)C(=O)c1nc(-c2ccccc2)c2ccccc2n1 | 3.3 | 0 | Active |  | 
O=C(c1nc(-c2ccccc2)c2cc(Cl)ccc2n1)N1CCCCCC1 |  | 0 |  | 38 | 
O=C(c1nc(-c2ccccc2Cl)c2cc(Cl)ccc2n1)N1CCCCC1 | 273 | 0 |  |  | 
CCC(C)NC(=O)c1nc(-c2ccccc2)c2cc(Cl)ccc2n1 (stereo unspecified) |  | 0 |  | 0 | 
O=C(c1nc(-c2ccc(Cl)cc2)c2cc(Cl)ccc2n1)N1CCCCC1 |  | 0 |  | 76 | 
CC(C)CN(C)C(=O)c1nc(-c2ccccc2Cl)c2ccccc2n1 | 6.98 | 0 |  |  | 
O=C(c1nc(-c2ccccc2)c2cc(Cl)ccc2n1)N1CCCC1 |  | 0 |  | 43 | 
O=C(c1nc(-c2ccccc2)c2cc(Cl)ccc2n1)N1CCCCC1 |  | 0 |  | 46 | 

Compound | Ki [1] [nM] | inhibition [2] [%] | Activity [3] | inhibition [4] [%] | Activity [5]
CC[C@@H](C)N(C)C(=O)c1nc(-c2ccccc2)c2ccccc2n1 | 6.41 | 0 |  |  | 
CC[C@H](C)N(C)C(=O)c1nc(-c2ccc(Cl)cc2)c2ccccc2n1 | 2.51 | 0 |  |  | 
CC(C)N(C)C(=O)c1nc(-c2ccccc2)c2cc(Cl)ccc2n1 |  | 0 |  | 0 | 
CN1C(=O)CN=C(c2ccccc2F)c2cc([N+](=O)[O-])ccc21 |  | 0 |  |  | 
CC(C)CN(C)C(=O)c1nc(-c2ccccc2Cl)c2cc(Cl)ccc2n1 |  | 0 |  | 77 | 
CCCCCCN(CCCCCC)C(=O)c1nc(-c2ccccc2)c2ccccc2n1 | 0.69 | 0 | inactive |  | Active
O=C(c1nc(-c2ccccc2Cl)c2ccccc2n1)N1CCCCC1 | 46 | 0 |  |  | 
CC[C@H](C)N(C)C(=O)c1nc(-c2ccccc2Cl)c2ccccc2n1 | 2.2 | 0 |  |  | 
CC(C)CN(C)C(=O)c1nc(-c2ccc(Cl)cc2)c2cc(Cl)ccc2n1 | 60.7 | 0 |  |  | 
O=C(c1nc(-c2ccc(Cl)cc2)c2ccccc2n1)N1CCCCC1 | 493 | 0 |  |  | 
CCC(C)NC(=O)c1nc(-c2ccc(Cl)cc2)c2ccccc2n1 (stereo unspecified) |  | 0 |  | 37 | 
CCC(C)NC(=O)c1nc(-c2ccccc2Cl)c2cc(Cl)ccc2n1 (stereo unspecified) |  | 0 |  | 0 | 
CC(C)CN(C)C(=O)c1nc(-c2ccccc2)c2cc(Cl)ccc2n1 | 842 | 0 |  |  | 
CCC(C)N(C)C(=O)c1nc(-c2ccccc2Cl)c2cc(Cl)ccc2n1 (stereo unspecified) |  | 0 |  | 43 | 
CCCCCN(CCCCC)C(=O)c1nc(-c2ccccc2)c2ccccc2n1 |  | 0 |  |  | 
O=C(c1nc(-c2ccc(Cl)cc2)c2ccccc2n1)N1CCCC1 | 644 | 0 |  |  | 
CC(C)N(C)C(=O)c1nc(-c2ccccc2Cl)c2cc(Cl)ccc2n1 |  | 0 |  | 0 | 
CCOC(=O)c1ncn2c1CN(C)C(=O)c1cc(F)ccc1-2 |  | 0 |  |  | 
O=C(c1nc(-c2ccccc2Cl)c2cc(Cl)ccc2n1)N1CCCC1 |  | 0 |  | 73 | 
CCCCN(C)C(=O)c1nc(-c2ccccc2)c2ccccc2n1 | 46 | 0 | Active |  | 
CC(C)CN(C)C(=O)c1nc(-c2ccc(Cl)cc2)c2ccccc2n1 | 20.7 | 0 |  |  | 

Compound | Ki [1] [nM] | inhibition [2] [%] | Activity [3] | inhibition [4] [%] | Activity [5]
O=C(c1nc(-c2ccccc2)c2ccccc2n1)N1CCCC1 |  | 0 |  | 36 | 
O=C(c1nc(-c2ccc(Cl)cc2)c2cc(Cl)ccc2n1)N1CCCC1 |  | 0 |  | 64 | 
CCC(C)NC(=O)c1nc(-c2ccccc2)c2ccccc2n1 (stereo unspecified) |  | 0 |  | 0 | 
CCC(C)NC(=O)c1nc(-c2ccccc2Cl)c2ccccc2n1 (stereo unspecified) |  | 0 |  | 63 | 
CN1C(=O)CN=C(c2ccc(Cl)cc2)c2cc(Cl)ccc21 |  | 0 | Active |  | 
CCC(C)N(C)C(=O)c1nc(-c2ccc(Cl)cc2)c2cc(Cl)ccc2n1 (stereo unspecified) | 179 | 0 |  |  | 
CCC(C)N(C)C(=O)c1cc2ccccc2c(-c2ccccc2Cl)n1 (stereo unspecified) |  | 0 | Active |  | Active
O=C(c1nc(-c2ccccc2Cl)c2cc(Cl)ccc2n1)N1CCCCCC1 | 415 | 0 |  |  | 
O=C(c1nc(-c2ccccc2)c2ccccc2n1)N1CCCCC1 |  | 0 |  | 61 | 
CC[C@@H](C)N(C)C(=O)c1nc(-c2ccccc2Cl)c2ccccc2n1 | 1.55 | 0 |  |  | 
CCCCCCN(CCCCCC)C(=O)c1nc(-c2ccccc2)c2cc(Cl)ccc2n1 | 38.5 | 0 |  |  | 
CCC(C)NC(=O)c1nc(-c2ccc(Cl)cc2)c2cc(Cl)ccc2n1 (stereo unspecified) |  | 0 |  | 49 | 
CCCCCCN(CCCCCC)C(=O)c1nc(-c2ccccc2Cl)c2cc(Cl)ccc2n1 | 30.4 | 0 |  |  | 
O=C(c1nc(-c2ccc(Cl)cc2)c2ccccc2n1)N1CCCCCC1 | 84.3 | 0 |  |  | 
CCCCCCN(CCCCCC)C(=O)c1nc(-c2ccc(Cl)cc2)c2cc(Cl)ccc2n1 | 4.31 | 0 |  |  | 
CC(C)N(C)C(=O)c1nc(-c2ccccc2Cl)c2ccccc2n1 | 12.5 | 0 |  |  | 
CCCCCCN(CCCCCC)C(=O)c1nc(-c2ccccc2Cl)c2ccccc2n1 | 65.1 | 0 |  |  | 
O=C(c1nc(-c2ccccc2)c2ccccc2n1)N1CCCCCC1 |  | 0 |  | 79 | 
CCCCCCN(CCCCCC)C(=O)c1nc(-c2ccc(Cl)cc2)c2ccccc2n1 | 3.42 | 0 | Active |  | 
O=C(c1nc(-c2ccc(Cl)cc2)c2cc(Cl)ccc2n1)N1CCCCCC1 |  | 0 |  | 77 | 
CC[C@H](C)N(C)C(=O)c1nc(-c2ccccc2)c2ccccc2n1 | 6.09 | 0 |  |  | 
